Data on 19 molecules can be found in patent US20260365647A1, “AKT1 MODULATORS” (Alterome Therapeutics, Inc., priority 2022, published 2026).

Molecules are shown by their SMILES.

T1 sequence (P31749 whole entry E17K): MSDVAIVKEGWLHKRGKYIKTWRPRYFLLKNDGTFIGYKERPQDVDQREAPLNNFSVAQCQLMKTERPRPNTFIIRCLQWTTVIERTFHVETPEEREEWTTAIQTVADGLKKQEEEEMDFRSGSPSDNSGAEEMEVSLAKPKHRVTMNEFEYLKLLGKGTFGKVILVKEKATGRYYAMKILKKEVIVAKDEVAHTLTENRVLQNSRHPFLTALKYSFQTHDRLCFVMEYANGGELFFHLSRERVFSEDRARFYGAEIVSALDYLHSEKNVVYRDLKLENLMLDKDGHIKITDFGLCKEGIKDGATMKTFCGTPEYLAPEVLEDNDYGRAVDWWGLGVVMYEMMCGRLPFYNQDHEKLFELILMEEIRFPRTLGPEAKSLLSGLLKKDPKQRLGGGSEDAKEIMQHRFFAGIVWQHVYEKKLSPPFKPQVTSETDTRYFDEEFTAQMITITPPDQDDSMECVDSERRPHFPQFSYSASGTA

The test concerns the target T1, AKT1-E17K (Homo sapiens, UniProt P31749, E17K).
T1 construct: host or cells: HEK-293 (ATCC CRL-1573)
Nature of the test: NanoBRET Target Engagement (TE) Assay. The class given is cell-based. The text has this: The NanoBRET™ Target Engagement (TE) Intracellular Kinase Assays are based on the NanoBRET™ System (Promega Corporation), an energy transfer technique designed to measure molecular proximity in living cells. The NanoBRET™ TE Assays measure the apparent affinity of test compounds by competitive displacement of the NanoBRET™ tracer compound, which is a cell permeable molecule engineered to be reversibly bound to a NanoLuc® luciferase-kinase fusion expressed in cells. For compound screening, when a test compound binds to the selected kinase, the BRET signal is attenuated. […] All cells were evaluated for viability prior to transfection and optimization of the transfection was done prior to experimentation. […] Following transfection, cells were washed and resuspended in Opti-MEM. NanoBRET assays were performed in white, 384-well plates (Corning) at a density of […]. All example compounds were prepared as concentrated stock solutions in DMSO (Sigma-Aldrich). Compounds are dissolved in DMSO to make 10 mM stock solution. […] A Labcyte ECHO 550 compound dispenser was used to facilitate compound transfer directly to cells. Cells were equilibrated for 2 hr with energy transfer probes and example compound prior to BRET measurements. […] For target engagement analysis, the energy transfer probes were added to the cells at concentrations optimized for the target in question (AKT E17K). Following compound incubation, NanoBRET NanoGlo Substrate (Promega Cat #N157D) and Extracellular Nanoluc Inhibitor (Promega Cat #N235C) was added according to the manufacturer's recommended protocol, and luminescence was measured on Envision Reader (Perkin Elmer) Multimode Luminometer equipped with 450 nmBPfilter (donor) and 600 nmLPfilter (acceptor), using 0.5 s integration time. Milli-BRET units (mBU) are calculated by multiplying the raw BRET values by 1000. Apparent tracer affinity values (EC50) were determined using the sigmoidal dose-response (variable slope). Competitive displacement data were then plotted and data were fit to determine the EC50 value for each example compound.
For orientation: BRET reads energy transfer from a luciferase to a nearby fluorophore.
Broadly, the IC50 is the concentration at which inhibition is half-maximal. Low values mean greater potency, high ones weaker potency. Consider `C[C@H](NC(=O)c1ccc(O)c(C=O)c1)c1ccc(-n2c(-c3cccnc3N)nc3ccc(-c4ccccc4)nc32)cc1` [Example 140, (S)—N-(1-(4-(2-(2-Aminopyridin-3-yl)-5-phenyl-3H-imidazo[4,5-b]pyridin-3-yl)phenyl)ethyl)-3-formyl-4-hydroxybenzamide], for which the half-inhibitory concentration (IC50) lay within 15 to 60 nM.
Next, `Nc1ncccc1-c1nc2ccc(-c3ccccc3)nc2n1-c1ccc(CN2CCC3(CCN(C(=O)c4ccc(C=O)c(O)c4)CC3)C2)cc1` [Example 90, 4-(2-(4-(2-(2-Aminopyridin-3-yl)-5-phenyl-3H-imidazo[4,5-b]pyridin-3-yl)benzyl)-2,8-diazaspiro[4.5]decane-8-carbonyl)-2-hydroxybenzaldehyde]: 60 to 600 nM.
Then `C[C@@H]1CN(Cc2ccc(-n3c(-c4cccnc4N)nc4ccc(-c5ccccc5)nc43)cc2)CCN1c1ccc(C=O)c(O)c1` [Example 104, (R)-4-(4-(4-(2-(2-Aminopyridin-3-yl)-5-phenyl-3H-imidazo[4,5-b]pyridin-3-yl)benzyl)-2-methylpiperazin-1-yl)-2-hydroxybenzaldehyde], with 60 to 600 nM.
Next, `Nc1ncccc1-c1nc2ccc(-c3ccccc3)nc2n1-c1ccc(CN2C3CCC2CN(c2ccc(C=O)c(O)c2)C3)cc1` [Example 114, 4-(8-(4-(2-(2-Aminopyridin-3-yl)-5-phenyl-3H-imidazo[4,5-b]pyridin-3-yl)benzyl)-3,8-diazabicyclo[3.2.1]octan-3-yl)-2-hydroxybenzaldehyde]: 60 to 600 nM; `Nc1ncccc1-c1nc2ccc(-c3ccccc3)nc2n1-c1ccc(CN2CCC(Nc3ccc(C=O)c(O)c3)CC2)cc1` [Example 47, 4-((1-(4-(2-(2-Aminopyridin-3-yl)-5-phenyl-3H-imidazo[4,5-b]pyridin-3-yl)benzyl)piperidin-4-yl)amino)-2-hydroxybenzaldehyde]: 60 to 600 nM; `Nc1ncccc1-c1nc2ccc(-c3ccccc3)nc2n1-c1ccc(CN2CCN(c3cc(O)c(C=O)cc3F)CC2)cc1` [Example 25, 4-(4-(4-(2-(2-Aminopyridin-3-yl)-5-phenyl-3H-imidazo[4,5-b]pyridin-3-yl)benzyl)piperazin-1-yl)-5-fluoro-2-hydroxybenzaldehyde]: 15 to 60 nM.
Consider `Nc1ncccc1-c1nc2ccc(-c3ccccc3)nc2n1-c1ccc(CN2CCC(Oc3cccc(O)c3C=O)CC2)cc1` [Example 128, 2-((1-(4-(2-(2-Aminopyridin-3-yl)-5-phenyl-3H-imidazo[4,5-b]pyridin-3-yl)benzyl)piperidin-4-yl)oxy)-6-hydroxybenzaldehyde], for which the IC50 was 60 to 600 nM.
Then `Nc1ncccc1-c1nc2ccc(N3CCOCC3)nc2n1-c1ccc(CN2CCN(c3ccc(C=O)c(O)c3)CC2)cc1` [Example 31, 4-(4-(4-(2-(2-Aminopyridin-3-yl)-5-morpholino-3H-imidazo[4,5-b]pyridin-3-yl)benzyl)piperazin-1-yl)-2-hydroxybenzaldehyde], with 60 to 600 nM.
Next, `N#Cc1cccc(-c2ccc3nc(-c4cccnc4N)n(-c4ccc(CN5CCN(C(=O)c6ccc(O)c(C=O)c6)CC5)cc4)c3n2)c1` [Example 34, 3-(2-(2-Aminopyridin-3-yl)-3-(4-((4-(3-formyl-4-hydroxybenzoyl)piperazin-1-yl)methyl)phenyl)-3H-imidazo[4,5-b]pyridin-5-yl)benzonitrile]: 60 to 600 nM; `Nc1ncccc1-c1nc2ccc(N3CCOCC3)nc2n1-c1ccc(CN2CCN(C(=O)c3ccc(C=O)c(O)c3)CC2)cc1` [Example 33, 4-(4-(4-(2-(2-Aminopyridin-3-yl)-5-morpholino-3H-imidazo[4,5-b]pyridin-3-yl)benzyl)piperazine-1-carbonyl)-2-hydroxybenzaldehyde]: more than 600 nM.
Next, `CN(C(=O)c1ccc(C=O)c(O)c1)C1CCN(Cc2ccc(-n3c(-c4cccnc4N)nc4ccc(-c5ccccc5)nc43)cc2)CC1` [Example 60, N-(1-(4-(2-(2-Aminopyridin-3-yl)-5-phenyl-3H-imidazo[4,5-b]pyridin-3-yl)benzyl)piperidin-4-yl)-4-formyl-3-hydroxy-N-methylbenzamide]: 60 to 600 nM.
As to `Nc1ncccc1-c1nc2ccc(-c3ccccc3)nc2n1-c1ccc(CN2CCC(NC(=O)c3ccc(O)c(C=O)c3)CC2)cc1` [Example 7, N-(1-(4-(2-(2-Aminopyridin-3-yl)-5-phenyl-3H-imidazo[4,5-b]pyridin-3-yl)benzyl)piperidin-4-yl)-3-formyl-4-hydroxybenzamide], the half-maximal inhibitory concentration (IC50) is less than 15 nM.
Next, `N#Cc1ccccc1-c1ccc2nc(-c3cccnc3N)n(-c3ccc(CN4CCN(C(=O)c5ccc(O)c(C=O)c5)CC4)cc3)c2n1` [Example 36, 2-(2-(2-aminopyridin-3-yl)-3-(4-((4-(3-formyl-4-hydroxybenzoyl)piperazin-1-yl)methyl)phenyl)-3H-imidazo[4,5-b]pyridin-5-yl)benzonitrile]: more than 600 nM.
Then `Nc1ncccc1-c1nc2ccc(-c3ccccc3)nc2n1-c1ccc(CN2CCN(c3ccc(C=O)c(O)c3F)CC2)cc1` [Example 26, 4-(4-(4-(2-(2-Aminopyridin-3-yl)-5-phenyl-3H-imidazo[4,5-b]pyridin-3-yl)benzyl)piperazin-1-yl)-3-fluoro-2-hydroxybenzaldehyde], with 15 to 60 nM.
For the molecule `Nc1ncccc1-c1nc2ccc(-c3ccccc3)nc2n1-c1ccc(CN2C[C@H]3C[C@@H]2CN3c2ccc(C=O)c(O)c2)cc1` [Example 124, 4-((1R,4R)-5-(4-(2-(2-Aminopyridin-3-yl)-5-phenyl-3H-imidazo[4,5-b]pyridin-3-yl)benzyl)-2,5-diazabicyclo[2.2.1]heptan-2-yl)-2-hydroxybenzaldehyde], the concentration for half-maximal inhibition (IC50) was in the range of 15 to 60 nM.
Then `C=Cc1cc(C=O)c(O)cc1N1CCN(Cc2ccc(-n3c(-c4cccnc4N)nc4ccc(-c5ccccc5)nc43)cc2)CC1` [Example 28, 4-(4-(4-(2-(2-Aminopyridin-3-yl)-5-phenyl-3H-imidazo[4,5-b]pyridin-3-yl)benzyl)piperazin-1-yl)-2-hydroxy-5-vinylbenzaldehyde], with 60 to 600 nM.
Next, `Nc1ncccc1-c1nc2ccc(-c3ccc(F)cc3)nc2n1-c1ccc(CN2CCN(C(=O)c3ccc(C=O)c(O)c3)CC2)cc1` [Example 144, 4-(4-(4-(2-(2-Aminopyridin-3-yl)-5-(4-fluorophenyl)-3H-imidazo[4,5-b]pyridin-3-yl)benzyl)piperazine-1-carbonyl)-2-hydroxybenzaldehyde]: 60 to 600 nM; `Nc1ncccc1-c1nc2ccc(-c3ccccc3)nc2n1-c1ccc(CN2CCC3(CCN(C(=O)c4ccc(O)c(C=O)c4)C3)C2)cc1` (stereo not shown) [Example 80, 5-(7-(4-(2-(2-Aminopyridin-3-yl)-5-phenyl-3H-imidazo[4,5-b]pyridin-3-yl)benzyl)-2,7-diazaspiro[4.4]nonane-2-carbonyl)-2-hydroxybenzaldehyde]: 60 to 600 nM; `Nc1ncccc1-c1nc2ccc(-c3ccccc3)nc2n1-c1ccc(CN2CC[C@@H](NC(=O)c3ccc(C=O)c(O)c3)C2)cc1` [Example 64, (R)—N-(1-(4-(2-(2-Aminopyridin-3-yl)-5-phenyl-3H-imidazo[4,5-b]pyridin-3-yl)benzyl)pyrrolidin-3-yl)-4-formyl-3-hydroxybenzamide]: 60 to 600 nM.
